# According to PubChem BioAssay AID2060899 (Molecular Pharmacology Branch, DTP, NCI, 2025):
# System: 565726-208-R1-J5-PDC complex spheroids, growth inhibition
# Assay: Anticancer human tumor 565726-208-R1-J5-PDC patient-derived pancreatic adenocarcinoma cell line growth inhibition [RAS]
# Settings: for viability, T/C: stronger effect = lower value
# Summary of the method: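 Multi-cell-type spheroids: tumor cells plus HUVEC endothelial cells and mesenchymal stem cells. RAS-pathway inhibitors were combined with targeted agents, each dosed in half-log steps down from clinical Cmax, or from 10 microM when Cmax was unknown.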
# 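Note: spheroids exposed to compounds for seven days before readout.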
# 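Throughout, for viability, T/C: 100% = DMSO vehicle control viability.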
compound,measurement,setting,value
CCc1c2c(nc3ccc(O)cc13)-c1cc3c(c(=O)n1C2)COC(=O)[C@]3(O)CC + CCn1c(-c2cc(N3CCN(C)CC3)cnc2C(C)OC)c2c3cc(ccc31)-c1csc(n1)CC(NC(=O)C1CC1C)C(=O)N1CCCC(N1)C(=O)OCC(C)(C)C2,IC50,"curve of first compound, second compound 0.000949 µM",1.36 nM
same,IC50,"curve of first compound, second compound 0.003 µM",< 0.949 nM
same,IC50,"curve of first compound, second compound 0.00949 µM",< 0.949 nM
same,IC50,"curve of first compound, second compound 0.03 µM",< 0.949 nM
same,IC50,"curve of first compound, second compound 0.0949 µM",< 0.949 nM
same,IC50,"curve of first compound, second compound 0.3 µM",< 0.949 nM
same,"viability, T/C","second compound 0.000949 µM, first compound 0.000949 µM",58%
same,"viability, T/C","second compound 0.000949 µM, first compound 0.003 µM",32.1%
same,"viability, T/C","second compound 0.000949 µM, first compound 0.00949 µM",21.2%
same,"viability, T/C","second compound 0.000949 µM, first compound 0.03 µM",16.2%
same,"viability, T/C","second compound 0.000949 µM, first compound 0.0949 µM",9.45%
same,"viability, T/C","second compound 0.000949 µM, first compound 0.3 µM",5.7%
same,"viability, T/C","second compound 0.003 µM, first compound 0.000949 µM",47.9%
same,"viability, T/C","second compound 0.003 µM, first compound 0.003 µM",32.1%
same,"viability, T/C","second compound 0.003 µM, first compound 0.00949 µM",25.3%
same,"viability, T/C","second compound 0.003 µM, first compound 0.03 µM",17.7%
same,"viability, T/C","second compound 0.003 µM, first compound 0.0949 µM",12.1%
same,"viability, T/C","second compound 0.003 µM, first compound 0.3 µM",6.82%
same,"viability, T/C","second compound 0.00949 µM, first compound 0.000949 µM",36.1%
same,"viability, T/C","second compound 0.00949 µM, first compound 0.003 µM",30%
same,"viability, T/C","second compound 0.00949 µM, first compound 0.00949 µM",21.6%
same,"viability, T/C","second compound 0.00949 µM, first compound 0.03 µM",16%
same,"viability, T/C","second compound 0.00949 µM, first compound 0.0949 µM",12.1%
same,"viability, T/C","second compound 0.00949 µM, first compound 0.3 µM",6.89%
same,"viability, T/C","second compound 0.03 µM, first compound 0.000949 µM",27.9%
same,"viability, T/C","second compound 0.03 µM, first compound 0.003 µM",24.1%
same,"viability, T/C","second compound 0.03 µM, first compound 0.00949 µM",20.7%
same,"viability, T/C","second compound 0.03 µM, first compound 0.03 µM",15.9%
same,"viability, T/C","second compound 0.03 µM, first compound 0.0949 µM",11.9%
same,"viability, T/C","second compound 0.03 µM, first compound 0.3 µM",6.36%
same,"viability, T/C","second compound 0.0949 µM, first compound 0.000949 µM",22.6%
same,"viability, T/C","second compound 0.0949 µM, first compound 0.003 µM",23.4%
same,"viability, T/C","second compound 0.0949 µM, first compound 0.00949 µM",18.6%
same,"viability, T/C","second compound 0.0949 µM, first compound 0.03 µM",13.6%
same,"viability, T/C","second compound 0.0949 µM, first compound 0.0949 µM",10.4%
same,"viability, T/C","second compound 0.0949 µM, first compound 0.3 µM",6.38%
same,"viability, T/C","second compound 0.3 µM, first compound 0.000949 µM",21.4%
same,"viability, T/C","second compound 0.3 µM, first compound 0.003 µM",20.8%
same,"viability, T/C","second compound 0.3 µM, first compound 0.00949 µM",15.6%
same,"viability, T/C","second compound 0.3 µM, first compound 0.03 µM",14.6%
same,"viability, T/C","second compound 0.3 µM, first compound 0.0949 µM",10.7%
same,"viability, T/C","second compound 0.3 µM, first compound 0.3 µM",5.7%
CCc1c2c(nc3ccc(O)cc13)-c1cc3c(c(=O)n1C2)COC(=O)[C@]3(O)CC + C=CC(=O)N1CCN(c2nc(OCC3CCCN3C)nc3c(F)c(-c4nc(N)cc(C)c4C(F)(F)F)c(Cl)cc23)C(C)C1,IC50,"curve of first compound, second compound 0.00316 µM",4.93 nM
same,IC50,"curve of first compound, second compound 0.01 µM",4.61 nM
same,IC50,"curve of first compound, second compound 0.0316 µM",5.78 nM
same,IC50,"curve of first compound, second compound 0.1 µM",5.53 nM
same,IC50,"curve of first compound, second compound 0.316 µM",3.96 nM
same,IC50,"curve of first compound, second compound 1 µM",5.1 nM
same,"viability, T/C","second compound 0.00316 µM, first compound 0.000949 µM",88.2%
same,"viability, T/C","second compound 0.00316 µM, first compound 0.003 µM",61.3%
same,"viability, T/C","second compound 0.00316 µM, first compound 0.00949 µM",34.5%
same,"viability, T/C","second compound 0.00316 µM, first compound 0.03 µM",23.3%
same,"viability, T/C","second compound 0.00316 µM, first compound 0.0949 µM",15.2%
same,"viability, T/C","second compound 0.00316 µM, first compound 0.3 µM",7.24%
same,"viability, T/C","second compound 0.01 µM, first compound 0.000949 µM",98.5%
same,"viability, T/C","second compound 0.01 µM, first compound 0.003 µM",58.2%
same,"viability, T/C","second compound 0.01 µM, first compound 0.00949 µM",33.8%
same,"viability, T/C","second compound 0.01 µM, first compound 0.03 µM",24.9%
same,"viability, T/C","second compound 0.01 µM, first compound 0.0949 µM",14.3%
same,"viability, T/C","second compound 0.01 µM, first compound 0.3 µM",8.62%
same,"viability, T/C","second compound 0.0316 µM, first compound 0.000949 µM",121%
same,"viability, T/C","second compound 0.0316 µM, first compound 0.003 µM",68.4%
same,"viability, T/C","second compound 0.0316 µM, first compound 0.00949 µM",35.4%
same,"viability, T/C","second compound 0.0316 µM, first compound 0.03 µM",21.1%
same,"viability, T/C","second compound 0.0316 µM, first compound 0.0949 µM",13.2%
same,"viability, T/C","second compound 0.0316 µM, first compound 0.3 µM",8.94%
same,"viability, T/C","second compound 0.1 µM, first compound 0.000949 µM",134%
same,"viability, T/C","second compound 0.1 µM, first compound 0.003 µM",64.1%
same,"viability, T/C","second compound 0.1 µM, first compound 0.00949 µM",39.3%
same,"viability, T/C","second compound 0.1 µM, first compound 0.03 µM",18.2%
same,"viability, T/C","second compound 0.1 µM, first compound 0.0949 µM",15.1%
same,"viability, T/C","second compound 0.1 µM, first compound 0.3 µM",8.7%
same,"viability, T/C","second compound 0.316 µM, first compound 0.000949 µM",113%
same,"viability, T/C","second compound 0.316 µM, first compound 0.003 µM",53%
same,"viability, T/C","second compound 0.316 µM, first compound 0.00949 µM",33.1%
same,"viability, T/C","second compound 0.316 µM, first compound 0.03 µM",21.1%
same,"viability, T/C","second compound 0.316 µM, first compound 0.0949 µM",13.3%
same,"viability, T/C","second compound 0.316 µM, first compound 0.3 µM",8.96%
same,"viability, T/C","second compound 1 µM, first compound 0.000949 µM",130%
same,"viability, T/C","second compound 1 µM, first compound 0.003 µM",59.1%
same,"viability, T/C","second compound 1 µM, first compound 0.00949 µM",35%
same,"viability, T/C","second compound 1 µM, first compound 0.03 µM",32.9%
same,"viability, T/C","second compound 1 µM, first compound 0.0949 µM",18.6%
same,"viability, T/C","second compound 1 µM, first compound 0.3 µM",11.7%
NC1c2ccccc2OC12CCN(c1cnc3c(N4CCCc5ncccc54)n[nH]c3n1)CC2 (stereo not drawn),"viability, T/C",compound 0.0316 µM,82.2% [middle of 4 runs]
same,"viability, T/C",compound 0.316 µM,72.5% [middle of 4 runs]
same,"viability, T/C",compound 1 µM,66% [middle of 4 runs]
same,IC50,curve of compound,> 10000 nM
